# Results: patent publication US8183263B2 (priority 2007, dated 2012)
# Test system: HCV replicon
# Assay: HCV replicon replication assay (NPT level by captured ELISA)
# Assay type: cell-based
# Conditions: Hepatitis C virus, 72 h; Huh-7 HCV replicon-containing cells, three days incubation; read-out: Activity (inhibition of HCV replicon replication)
# Outline: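 Huh-7 cells carrying HCV subgenomic replicon (NS3–NS5B, neo reporter) treated 3 days at 37 °C with 6 concentrations from 10 to 0.03 micromolar in G418-free medium, equal DMSO across wells. Replication measured on day four as NPTII level by in-cell captured ELISA on fixed cells; interferon alpha as positive control.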
row,Structure (SMILES),EC50 [nM]
1,"CCCOCCCCCc1ccc(Nc2nc(-c3cccnc3)c(F)s2)cc1C(F)(F)F [Cmp 192, 5-fluoro-N-(4-(5-propoxypentyl)-3-(trifluoromethyl)phenyl)-4-(pyridin-3-yl)thiazol-2-amine]",< 1000
2,"CCCCCCCCc1cc2cc(Nc3nc(-c4cncc(C#N)c4)cs3)ccc2o1 [Cmp 203, 5-(2-(2-octylbenzofuran-5-ylamino)thiazol-4-yl)nicotinonitrile]",< 1000
3,"CCCCCCCCOc1ccc(Nc2nc(-c3ccc4nncn4c3)c(F)s2)cc1C(F)(F)F [Cmp 214, 4-([1,2,4]triazolo[4,3-a]pyridin-6-yl)-5-fluoro-N-(4-(octyloxy)-3-(trifluoromethyl)phenyl)thiazol-2-amine]",< 1000
4,"CCCCCCCC(=O)c1ccc(Nc2nc(-c3cccnc3)c(F)s2)cc1C(F)(F)F [Cmp 215, 1-(4-(5-fluoro-4-(pyridin-3-yl)thiazol-2-ylamino)-2-(trifluoromethyl)phenyl)octan-1-one]",< 1000
5,"Fc1ccc(CCCCCc2ccc(Nc3nc(-c4cccnc4)cs3)cc2C(F)(F)F)cc1 [Cmp 216, N-(4-(5-(4-fluorophenyl)pentyl)-3-(trifluoromethyl)phenyl)-4-(pyridin-3-yl)thiazol-2-amine]",< 1000
6,"Fc1ccc(CCCCCc2ccc(Nc3nc(-c4cccnc4)c(F)s3)cc2C(F)(F)F)cc1 [Cmp 217, 5-fluoro-N-(4-(5-(4-fluorophenyl)pentyl)-3-(trifluoromethyl)phenyl)-4-(pyridin-3-yl)thiazol-2-amine]",< 1000
7,"CCCCCCCC(C)Oc1ccc(Nc2nc(-c3cccnc3)c(F)s2)cc1C(F)(F)F (stereo not shown) [Cmp 218, 5-fluoro-N-(4-(nonan-2-yloxy)-3-(trifluoromethyl)phenyl)-4-(pyridin-3-yl)thiazol-2-amine]",< 1000
8,"CCCCCCCCc1ccc(Nc2nc(-c3ccccc3)c(CC(=O)O)s2)cc1C(F)(F)F [Cmp 219, 2-(2-(4-octyl-3-(trifluoromethyl)phenylamino)-4-phenylthiazol-5-yl)acetic acid]",1000 to 10000
9,"CCCCCOCCCc1ccc(Nc2nc(-c3cccnc3)c(F)s2)cc1C(F)(F)F [Cmp 220, 5-fluoro-N-(4-(3-(pentyloxy)propyl)-3-(trifluoromethyl)phenyl)-4-(pyridin-3-yl)thiazol-2-amine]",< 1000
10,"CCCCCCCC(C)(C)Oc1ccc(Nc2nc(-c3cccnc3)c(F)s2)cc1C(F)(F)F [Cmp 221, 5-fluoro-N-(4-(2-methylnonan-2-yloxy)-3-(trifluoromethyl)phenyl)-4-(pyridin-3-yl)thiazol-2-amine]",< 1000
11,"CCCOCCC#Cc1ccc(Nc2nc(-c3cccnc3)c(F)s2)cc1C(F)(F)F [Cmp 222, 5-fluoro-N-(4-(4-propoxybut-1-ynyl)-3-(trifluoromethyl)phenyl)-4-(pyridin-3-yl)thiazol-2-amine]",< 1000
12,"Fc1sc(Nc2ccc(CCCCCOC3CCCC3)c(C(F)(F)F)c2)nc1-c1cccnc1 [Cmp 230, N-(4-(5-(cyclopentyloxy)pentyl)-3-(trifluoromethyl)phenyl)-5-fluoro-4-(pyridin-3-yl)thiazol-2-amine]",< 1000
13,"Fc1sc(Nc2ccc(CCCCCCCCCl)c(C(F)(F)F)c2)nc1-c1cccnc1 [Cmp 231, N-(4-(8-chlorooctyl)-3-(trifluoromethyl)phenyl)-5-fluoro-4-(pyridin-3-yl)thiazol-2-amine]",< 1000
14,"CCCCCCC[C@H](C)Oc1ccc(Nc2nc(-c3cccnc3)c(F)s2)cc1C(F)(F)F [Cmp 232, (S)-5-fluoro-N-(4-(nonan-2-yloxy)-3-(trifluoromethyl)phenyl)-4-(pyridin-3-yl)thiazol-2-amine]",< 1000
15,"CCCCCCC[C@@H](C)Oc1ccc(Nc2nc(-c3cccnc3)c(F)s2)cc1C(F)(F)F [Cmp 233, (R)-5-fluoro-N-(4-(nonan-2-yloxy)-3-(trifluoromethyl)phenyl)-4-(pyridin-3-yl)thiazol-2-amine]",< 1000
16,"CCCCOCCCCc1ccc(Nc2nc(-c3cccnc3)c(F)s2)cc1C(F)(F)F [Cmp 234, N-(4-(4-butoxybutyl)-3-(trifluoromethyl)phenyl)-5-fluoro-4-(pyridin-3-yl)thiazol-2-amine]",< 1000
